Reference: patent US5354778A, “Antitumor compositions and methods of treatment” (priority 1993, dated 1994)
Converted amounts (≈) assume the structure as drawn.

Key:
[1] = tested on: CCRF-CEM cells; assay: in vitro cytotoxicity against CCRF-CEM cells (50% inhibition of growth); assay type: cell-based, human; settings: 72 h incubation; for IC50: Homo sapiens, CCRF-CEM
Method: The in vitro CCRF-CEM data reported in column 5 of the Table was obtained using CCRF-CEM cells, a human leukemia cell line, (Foley et al., Cancer, 1965, 18, 522) were grown as previously described (Grindey, et al., J. Mol. Pharmacol., 1979, 16, 601) both references incorporated herein by reference. Dose-response curves were generated for various compounds to determine the concentration required for 50% inhibition of growth (IC50). Cluster plates were prepared in duplicate with the compound at various concentrations. Test compounds were dissolved initially in DMSO at a concentration of 4 mg/mL and further diluted with solvent to the desired concentration. Cells in Roswell Park Memorial Institute 1640 media supplemented with 10% dialyzed fetal bovine serum, and 25 mM HEPES buffer were added to the well an a final concentration of 4.8×10^4 cells/well in a total volume of 2.0 mL. After 72 h of incubation (95% air, 5% CO2), cell numbers were determined on a ZBI Coulter counter. Cell number for indicated controls at the end of incubation was usually (4-6)×10^5 cells/well.

[2] = tested on: 6C3HED lymphosarcoma; assay: in vivo activity against 6C3HED lymphosarcoma (Gardner lymphosarcoma, GLS) transplanted in C3H mice, oral; settings: for Toxic/Total (number of mice which died during test period/total number of mice in test group): 6C3HED tumor-bearing C3H mice; for inhibition in vivo at 150 mg/kg / inhibition in vivo at 300 mg/kg: Mus musculus, 6C3HED, po, 192 h, read-out: % Tumor Inhibition; for % Tumor Inhibition: 6C3HED tumor, C3H mice
Method: The compounds were tested in C3H mice bearing a 6C3HED lymphosarcoma, also known as the Gardner lymphosarcoma (GLS). The 6C3HED lymphosarcoma was obtained from the Division of Cancer Treatment, National Cancer Institute, Tumor Bank, maintained at E. G. and G. Mason Research (Worcester, Mass.). First passage tumor was stored in liquid nitrogen using standard techniques. The transplanted tumor was reestablished from the Tumor Bank every six months or as needed. The tumor was maintained by serial passage twice weekly in C3H mice.
In the procedure the tumor was removed from passage animals and minced into 1- to 3-mm square fragments using sterile techniques. Tumor pieces were checked for sterility using both Antibiotic Medium 1 and Brain Heart Infusion (Difco, Detroit, Mich.). Recipient mice were shaved and tumor pieces were implanted subcutaneously in the auxiliary region by trocar. Drug therapy on the appropriate schedule was initiated on the day after tumor implant. The compound being tested was mixed with 2.5 weight % of a polyoxyethylated oil known as "Emulphor EL-620" surfactant from GAF Chemicals Corporation (1:40 dilution of Empulphor in saline). All animals were weighed at the beginning and end of administration of the subject compounds. Food and water were provided ad libitum. The drug was administered orally in 0.5 ml of 2.5% Emulphor. Unless otherwise indicated, the compound was administered once per day for eight days. The tumor was measured the day after treatment ended with two dimensional measurements (width and length) of the tumor taken using Vernier calipers. Tumor weights were calculated from these measurements using the following formula:
(tumor weight in mg)=(width in mm)^2 ×(length in mm)/2
At least one control group of an equal number of mice was treated with the same volume of 2.5% Emulphor only. The percent inhibition was calculated by subtracting the ratio of the mean tumor size of the test group relative to the control group from 1 and multiplying the result by 100.
The results of administering some of the present compounds orally (unless otherwise indicated) to mice bearing a 6C3HED tumor are provided in the Table. In the Table, column 1 gives the example number corresponding to the preparation of the particular compound, column 2 provides the dose level, column 3 lists the percent inhibition of tumor growth, and column 4 gives the number of mice which died relative to the total number of animals in the group.

[3] = 150 mg/kg orally daily for eight days
[4] = 300 mg/kg orally daily for eight days

Structure (SMILES)	IC50 [1] [µg/mL]	Toxic/Total (number of mice which died during test period/total number of mice in test group) [2, 3]	Toxic/Total (number of mice which died during test period/total number of mice in test group) [2, 4]	inhibition in vivo at 150 mg/kg [2] [%]	inhibition in vivo at 300 mg/kg [2] [%]	in vitro (CCRF-CEM) IC50 [1] [µg/mL]	% Tumor Inhibition [2, 3] [%]	% Tumor Inhibition [2, 4]
Cc1cc(S(=O)(=O)NC(=O)Nc2ccc(Cl)cc2)cc(C)c1C [Example 1, N-[[(4-Chlorophenyl)amino]carbonyl]-3,4,5-trimethylbenzene sulfonamide]	14.8 (≈ 41.9 µM)	0/10	0/10	99	100			
Cc1cc(S(=O)(=O)NC(=O)Nc2ccc(Br)cc2)cc(C)c1C [Example 2, N-[[(4-Bromomhenyl)amino]carbonyl]-3,4,5-trimethylbenzenesulfonamide]	> 20	1/10	8/10	99	99			
Cc1cc(S(=O)(=O)NC(=O)Nc2ccc(C(F)(F)F)cc2)cc(C)c1C [Example 3, N-[[(4 -Trifluoromethylphenyl)amino]carbonyl]-3,4,5-trimethylbenzenesulfonamide]	> 20	0/10	4/10	100	100			
Cc1cc(S(=O)(=O)NC(=O)Nc2ccc(Cl)c(Cl)c2)cc(C)c1C [Example 4, N-[[(3,4-Dichlorophenyl)amino]carbonyl]-3,4,5-trimethylbenzenesulfonamide]	13.5 (≈ 34.9 µM)	0/10	1/10	38	74			
O=C(Nc1ccc(Cl)cc1)NS(=O)(=O)c1cc(Cl)c(Cl)c(Cl)c1 [Example 6, N-[[(4-Chlorophenyl)amino]carbonyl]-3,4,5-trichlorobenzene sulfonamide]	> 20	0/10	3/10	99	99			
Nc1c(Cl)cc(S(=O)(=O)NC(=O)Nc2ccc(Cl)cc2)cc1Cl [Example 7, N,[[(4-Chlorophenyl)amino]carbonyl]-4-amino-3,5-dichlorobenzenesulfonamide]		0/10	10/10			> 20	95	Toxic
Cc1cc(S(=O)(=O)NC(=O)Nc2ccc(Cl)cc2)cc(C)c1Cl [Example 12, N-[[(4-Chlorophenyl)amino]carbonyl]-4-chloro-3,5-dimethylbenzenesulfonamide]	15 (≈ 40.2 µM)	0/10	1/10	44	84			
CN(C)c1c(Cl)cc(S(=O)(=O)NC(=O)Nc2ccc(Cl)cc2)cc1Cl [Example 14, N-[[(4-Chlorophenyl)amino]carbonyl]-4-(N,N,dimethylamino)-3,5-dichlorobenzene-sulfonamide]	17 (≈ 40.2 µM)	1/10	0/10	50	93			
COc1c(C)cc(S(=O)(=O)NC(=O)Nc2ccc(Cl)cc2)cc1C [Example 15, N-[[(4-Chlorophenyl)amino]carbonyl]-3,5-dimethyl-4-methoxybenzesulfonamide]	16.5 (≈ 44.7 µM)	1/10	0/10	55	87			
COc1cc(S(=O)(=O)NC(=O)Nc2ccc(Cl)cc2)cc(OC)c1OC [Example 16, N-[[(4-Chlorophenyl)amino]carbonyl]-3,4,5-trimethoxylbenzenesulfonamide]	> 20	0/10	0/10	6	35			
CNc1c(Br)cc(S(=O)(=O)NC(=O)Nc2ccc(Cl)cc2)cc1Br [Example 18, N-[[(4-Chlorophenyl)amino]carbonyl]-3,5-dibromo-4-(N-methylamino)benzenesulfonamide]	19.3 (≈ 38.8 µM)	1/10	0/10	26	47			
